These results are taken from US10285983B2, “3-(1H-pyrrolo[2,3-B]pyridin-2-yl)-1H-pyrazolo[3,4-B] pyridines and therapeutic uses thereof” (Samumed, LLC, priority 2015, dated 2019).

What all share (assay type): cell-based
Assay [1] relates to primary human fibroblasts derived from IPF patients (LL29 cells). The assay is described as follows: Inhibition of fibrotic process, αSMA staining in TGF-β1 treated LL29 fibroblasts. Particulars: Fibroblast, 96 h, TGF-β1 20 ng/mL, 4 days; for EC50: % αSMA positive cells; for inhibition at 10 µM: given for EC50 >10 μM, read-out: percent inhibition at 10 μM. An excerpt: Representative compounds were screened using primary human fibroblasts (derived from IPF patients) treated with TGF-β1 to determine their ability to inhibit the fibrotic process.
Primary human fibroblasts derived from IPF patients (LL29 cells) [^1Xiaoqiu Liu, et. al., “Fibrotic Lung Fibroblasts Show Blunted Inhibition by cAMP Due to Deficient cAMP Response Element-Binding Protein Phosphorylation”, Journal of Pharmacology and Experimental Therapeutics (2005), 315(2), 678-687; ^2Watts, K. L., et. al., “RhoA signaling modulates cyclin D1 expression in human lung fibroblasts; implications for idiopathic pulmonary fibrosis”, Respiratory Research (2006), 7(1), 88] were obtained from American Type Culture Collection (ATCC) and expanded in F12 medium supplemented with 15% Fetal Bovine Serum and Penicillin/Streptomycin.
Each compound was dissolved in DMSO as a 10 mM stock and used to prepare compound source plates. Serial dilution (1:2, 11-point dose-response curves from […] to […]) and compound transfer was performed using the ECHO 550 (Labcyte, Sunnyvale, Calif.) into 384-well clear bottom assay plates (Greiner Bio-One) with appropriate DMSO backfill for a final DMSO concentration of 0.1%. LL29 cells are plated at 1,500 cells/well in 80 μL/well F12 medium supplemented with 1% Fetal Bovine Serum. One hour after addition of the cells, TGF-β1 (Peprotech; 20 ng/mL) was added to the plates to induce fibrosis (ref. 1 and 2 above). Wells treated with TGF-β1 and containing DMSO were used as controls. Cells were incubated at 37° C. and 5% CO2 for 4 days. Following incubation for 4 days, SYTOX green nucleic acid stain (Life Technologies [Thermo Fisher Scientific]) was added to the wells at a final concentration of 1 μM and incubated at room temperature for 30 min. Cells were then fixed using 4% formaldehyde (Electron Microscopy Sciences), washed 3 times with PBS followed by blocking and permeabilization using 3% Bovine Serum Albumin (BSA; Sigma) and 0.3% Triton X-100 (Sigma) in PBS. Cells were then stained with antibody specific to α-smooth muscle actin (αSMA; Abcam) (ref. 1 and 2 above) in 3% Bovine Serum Albumin (BSA; Sigma) and 0.3% Triton X-100 (Sigma) in PBS, and incubated overnight at 4° C. Cells were then washed 3 times with PBS, followed by incubation with Alexa Flor-647 conjugated secondary antibody (Life Technologies [Thermo Fisher Scientific]) and DAPI at room temperature for 1 hour. Cells were then washed 3 times with PBS and plates were sealed for imaging. αSMA staining was imaged by excitation at 630 nm and emission at 665 nm and quantified using the Compartmental Analysis program on the CellInsight CX5 (Thermo Scientific). Dead or apoptotic cells were excluded from analysis based on positive SYTOX green staining. % of total cells positive for αSMA were counted in each well and normalized to the average of 11 wells treated with TGF-β1 on the same plate using Dotmatics' Studies Software. The normalized averages (fold change over untreated) of 3 replicate wells for each compound concentration were used to create dose-responses curves and EC50 values were calculated using non-linear regression curve fit in the Dotmatics' Studies Software. For EC50 of >10 μM, the percent inhibition at 10 μM is provided.

In the next assay the test system is SW480 colon cancer cells. The assay is described as follows: Cell viability assay (CellTiter-Blue). As to conditions: Homo sapiens, 96 h, four days; for inhibition at 10 µM: given for EC50 >10 μM, read-out: percent inhibition at 10 μM. The procedure: Representative compounds were screened using the following assay procedure to assess the effect on cell viability as described below.
Each compound was dissolved in DMSO as a 10 mM stock and used to prepare compound source plates. Serial dilution (1:3, 8-point dose-response curves from 10 μM to 0.0045 μM) and compound transfer was performed using the ECHO 550 (Labcyte, Sunnyvale, Calif.) into 96-well clear bottom, black-walled plates (Corning-Costar).
Approximately 2×10^3 SW480 colon cancer cells were seeded into each well and allowed to incubate in the presence or absence of compound for four days at 37° C./5% CO2. Eight replicates of DMSO-treated cells served as controls and cells treated with compound were performed in duplicate.
After incubation, 20 μL of CellTiter-Blue (Promega) was added to each well allowed to incubate for approximately 3 hours. This reagent was a buffered solution which contains resazurin, metabolically active cells were able to reduce rezarurin (blue) into resorufin (pink) which was highly fluorescent. This measured fluorescence was used as a readout for cell viability.
After incubation, the plates were read at Ex 560 nm Em 590 nm (Cytation 3, BioTek). Dose-response curves were generated and EC50 concentration values were calculated using non-linear regression curve fit in the GraphPad Prism (San Diego, Calif.) or Dotmatics' Studies Software (Bishops Stortford, UK). For EC50 of >10 μM, the percent inhibition at 10 μM is provided.

The test system of assay [2] is IL-6 (THP-1 human monocyte cell line). Kind of assay: IL-6 inhibition in LPS-stimulated THP-1 cells (HTRF). As to conditions: LPS 500 ng/mL; for EC50: 22 hours, IL6 HTRF; for inhibition at 10 µM: given for EC50 >10 μM, read-out: percent inhibition at 10 μM. The procedure: Human monocyte cell line (THP-1 cells; Catalog # TIB-202, ATCC, Manassas, Va.) were cultured in Roswell Park Memorial Institute (RPMI) 1640 Medium (Catalog #21870-100, Buffalo, N.Y.) with 1% L-glutamine, 1% HEPES, 1% Sodium Pyruvate, 2% Sodium Bicarbonate supplemented with 100 units/mL penicillin, 50 μg/mL streptomycin, 2-mercaptoethanol (0.05 mM) [basal medium] and 10% fetal bovine serum (Catalog #16140089, Life Technologies, Carlsbad, Calif.) at 37° C. and 5% CO2.
THP-1 cells were cultured in basal media with 1% FBS for 24 hours before the start of the assay. Each compound was dissolved in DMSO as a 10 mM stock and used to prepare compound source plates. Serial dilution (1:3, 10-point dose-response curves starting from […]) and compound transfer was performed using the ECHO 550 (Labcyte, Sunnyvale, Calif.) into 384-well white low volume assay plates (Greiner Bio-One) with appropriate DMSO backfill for a final DMSO concentration of 0.1%. THP-1 cells were plated at 5000 cells/well in the 384-well plates and incubated at 37° C. for 2 h. 500 ng/mL of LPS was added after 2 hours and cells were incubated for another 22 hours at 37° C. Plates were spun in a centrifuge for 1 minute at 10,000 rpm and a mixture of anti-IL6 XL665, and anti-IL6 Cryptate diluted in reconstitution buffer (Cisbio Inc.) was added to each well. Following incubation for 3 hrs at room temperature, Homogeneous Time-Resolved Fluorescence (HTRF) was measured using the Envision (Perkin Elmer) at 665 nm and […]. The ratio of fluorescence at 665 nm to 620 nm was used as a readout for IL6 quantification. All samples were processed in duplicate. Readings were normalized to DMSO treated cells and normalized activities were utilized for EC50 calculations using the dose-response log (inhibitor) vs. response—variable slope (four parameters) nonlinear regression feature available in GraphPad Prism 5.0 (or Dotmatics). For EC50 of >10 μM, the percent inhibition at 10 μM is provided.
(Time-resolved FRET reads energy transfer from a long-lived donor to a nearby acceptor.)

A word on the EC50: it is the concentration at which the effect is half-maximal. Low readings indicate greater potency, high ones weaker potency. As usually defined, the inhibition is how much of the control response was suppressed. As to `Fc1ccc(-c2ccnc3[nH]c(-c4n[nH]c5ncc(-c6cncc(CN7CCCCC7)c6)cc45)cc23)cc1` [Compound 43, 3-(4-(4-Fluorophenyl)-1H-pyrrolo[2,3-b]pyridin-2-yl)-5-(5-(piperidin-1-ylmethyl)pyridin-3-yl)-1H-pyrazolo[3,4-b]pyridine], the EC50 (in assay [1]; in the assay with SW480 colon cancer cells; in assay [2]) was over 10 µM in each case. The inhibition at 10 µM in assay [1] turned out to be 0%; in the assay on SW480 colon cancer cells it was 6.9%; in assay [2], 36.7%.
For `O=C(Nc1cncc(-c2cnc3[nH]nc(-c4cc5c(-c6ccc(F)cc6)ccnc5[nH]4)c3c2)c1)C1CCCCC1` [Compound 51, N-(5-(3-(4-(4-Fluorophenyl)-1H-pyrrolo[2,3-b]pyridin-2-yl)-1H-pyrazolo [3,4-b]pyridin-5-yl)pyridin-3-yl)cyclohexanecarboxamide], the EC50 (in assay [1]; in the assay on SW480 colon cancer cells; in assay [2]) was over 10 µM throughout. Further, the inhibition at 10 µM in assay [1] was 1.3%; with SW480 colon cancer cells, 17.7%; in assay [2] it was 19.4%.
In the case of `Fc1ccc(-c2ccnc3[nH]c(-c4n[nH]c5ncc(-c6cncc(CN7CCC(F)(F)C7)c6)cc45)cc23)cc1` [Compound 54, 5-(5-((3,3-Difluoropyrrolidin-1-yl)methyl)pyridin-3-yl)-3-(4-(4-fluorophenyl)-1H-pyrrolo[2,3-b]pyridin-2-yl)-1H-pyrazolo[3,4-b]pyridine], the EC50 in assay [1] was 4.88 µM; in the assay on SW480 colon cancer cells, over 10 µM; in assay [2], over 10 µM. Besides, the inhibition at 10 µM with SW480 colon cancer cells was 6.9%; in assay [2], 32.3%.
Turning to `Fc1ccc(-c2ccnc3[nH]c(-c4n[nH]c5ncc(-c6cncnc6)cc45)cc23)cc1` [Compound 55, 3-(4-(4-Fluorophenyl)-1H-pyrrolo[2,3-b]pyridin-2-yl)-5-(pyrimidin-5-yl)-1H-pyrazolo[3,4-b]pyridine], the half-maximal effective concentration (EC50) (in assay [1]; in the assay with SW480 colon cancer cells; in assay [2]) was over 10 µM throughout. Moreover, the inhibition at 10 µM was 1.8% in assay [1], 3.5% in the assay on SW480 colon cancer cells and 32.2% in assay [2].
Consider `Nc1cncc(-c2cnc3[nH]nc(-c4cc5c(-c6ccccc6F)ccnc5[nH]4)c3c2)c1` [Compound 59, 5-(3-(4-(2-Fluorophenyl)-1H-pyrrolo[2,3-b]pyridin-2-yl)-1H-pyrazolo[3,4-b]pyridin-5-yl)pyridin-3-amine], for which the EC50 (in assay [1]; in the assay with SW480 colon cancer cells; in assay [2]) was over 10 µM each time. Further, the inhibition at 10 µM turned out to be 0% in assay [1], 20.1% with SW480 colon cancer cells and 34.8% in assay [2].
For `CCNCc1cncc(-c2cnc3[nH]nc(-c4cc5c(-c6ccccc6F)ccnc5[nH]4)c3c2)c1` [Compound 62, N-((5-(3-(4-(2-Fluorophenyl)-1H-pyrrolo[2,3-b]pyridin-2-yl)-1H-pyrazolo [3,4-b]pyridin-5-yl)pyridin-3-yl)methyl)ethanamine], the EC50 (in assay [1]; with SW480 colon cancer cells; in assay [2]) was over 10 µM each time. In addition, the inhibition at 10 µM in assay [1] turned out to be 0%; in the assay with SW480 colon cancer cells, 38.2%; in assay [2], 13.3%.
In the case of `CN(C)c1cncc(-c2cnc3[nH]nc(-c4cc5c(-c6ccccc6F)ccnc5[nH]4)c3c2)c1` [Compound 63, 5-(3-(4-(2-Fluorophenyl)-1H-pyrrolo[2,3-b]pyridin-2-yl)-1H-pyrazolo[3,4-b]pyridin-5-yl)-N,N-dimethylpyridin-3-amine], the EC50 (in assay [1]; with SW480 colon cancer cells; in assay [2]) was over 10 µM in each case. The inhibition at 10 µM came out at 0% in assay [1], 16.1% in the assay on SW480 colon cancer cells and 11.3% in assay [2].
With `CC(C)C(=O)Nc1cncc(-c2cnc3[nH]nc(-c4cc5c(-c6ccccc6F)ccnc5[nH]4)c3c2)c1` [Compound 65, N-(5-(3-(4-(2-Fluorophenyl)-1H-pyrrolo[2,3-b]pyridin-2-yl)-1H-pyrazolo [3,4-b]pyridin-5-yl)pyridin-3-yl)isobutyramide], the EC50 in assay [1] was 0.812 µM; in the assay on SW480 colon cancer cells, over 10 µM; in assay [2], over 10 µM. Besides, the values for the inhibition at 10 µM (in the assay on SW480 colon cancer cells; in assay [2]) were 32.1% and 25.6%, respectively.
As for `CC(C)Nc1cncc(-c2cnc3[nH]nc(-c4cc5c(-c6ccccc6F)ccnc5[nH]4)c3c2)c1` [Compound 68, 5-(3-(4-(2-Fluorophenyl)-1H-pyrrolo[2,3-b]pyridin-2-yl)-1H-pyrazolo[3,4-b]pyridin-5-yl)-N-isopropylpyridin-3-amine], the EC50 is 8.54 µM in assay [1], over 10 µM with SW480 colon cancer cells and over 10 µM in assay [2]. In addition, the inhibition at 10 µM in the assay on SW480 colon cancer cells stood at 1%; in assay [2], 42.9%.
`CC(C)(C)CC(=O)Nc1cncc(-c2cnc3[nH]nc(-c4cc5c(-c6ccccc6F)ccnc5[nH]4)c3c2)c1` [Compound 72, N-(5-(3-(4-(2-Fluorophenyl)-1H-pyrrolo[2,3-b]pyridin-2-yl)-1H-pyrazolo [3,4-b]pyridin-5-yl)pyridin-3-yl)-3,3-dimethylbutanamide]: the EC50 in assay [1] is 0.759 µM; in the assay on SW480 colon cancer cells, over 10 µM; in assay [2], over 10 µM. Further, the figures for the inhibition at 10 µM (in the assay with SW480 colon cancer cells; in assay [2]) were 14.7% and 38.1%, respectively.
